Results on two compounds are retold here after ChEMBL document CHEMBL5647694, “Novel orally bioavailable EZH1/2 dual inhibitors with greater antitumor efficacy than an EZH2 selective inhibitor” (Cancer Sci, 2017).

A short description of data set [1]: Toxicity in Crl:CD Sprague-Dawley rat assessed as glucose level in blood at 100 mg/kg, po administered daily for 14 days (reference value: 193 +/-[…]). Type of data set: organism-based. The following applies: in vivo, 336 h, time 14 day.
Data set [2] can be described thus: Toxicity in Crl:CD Sprague-Dawley rat assessed as eosinophil count in blood at 100 mg/kg, po administered daily for 14 days (reference value: 0.085+/-0.04 10^3/uL). Type of data set: organism-based. Particulars: in vivo, 336 h, time 14 day.
Data set [3] deals with Tyrosine-protein kinase Tec (Homo sapiens) (UniProt P42680). Kind of data set: Inhibition of N-terminal GST-tagged human TEC catalytic domain (359 to 631 residues) expressed in baculovirus-infected Sf21 cells using Srctide as substrate at 1 uM in presence of ATP by Mobility shift assay.
Data set [4] in a line: Mean AUC (0-24 hrs) in Crl:CD Sprague-Dawley rat at 100 mg/kg, po by LC/MS/MS analysis. Type of data set: ADME, organism-based. Particulars: in vivo.
The nature of data set [5]: Cmax in BALB/c mouse at 6.3 mg/kg administered as single dose. It counts as ADME, organism-based. The following applies: in vivo, route po.
The subject of a further data set is KARPAS-422. Kind of data set: Antitumor activity against human KARPAS-422 cells xenografted in CB17/Icr-Prkdcscid/CrlCrlj mouse assessed as inhibition of tumor growth at 50 mg/kg, po BID for 14 days and measured after cessation of drug treatment. It counts as functional, organism-based. The following applies: time 14.0 day. (In xenograft studies the graft and the host belong to different species.)

Data set [6] is described as follows: Toxicity in Crl:CD Sprague-Dawley rat assessed as […] dehydrogenase level in blood at 100 mg/kg, po administered daily for 14 days (reference value: 103 +/-16.1 U/L). It counts as organism-based. Particulars: in vivo, 336 h, time 14 day.
The target in data set [7] is Histone-lysine N-methyltransferase 2A (Homo sapiens, UniProt Q03164). Kind of data set: Inhibition of human MLL1 using Nucleosomes and [3H]SAM as substrate incubated for 30 mins to 1 hr by HotSpot kinase assay.
A further data set relates to Ramos. Kind of data set: Antitumor activity against human Ramos cells assessed as cell growth inhibition treated for 10 to 15 days. It counts as functional. The following applies: time 10-15 day.
Data set [8] deals with MAP kinase-activated protein kinase 2 (Homo sapiens) (UniProt P49137). The data set can be described thus: Inhibition of N-terminal GST-fused full length human MAPKAPK2 (1 to 400 residues) expressed in baculovirus expression system using GS peptide as substrate at 1 uM in presence of ATP by Mobility shift assay.
Another data set relates to NB-4. The data set can be described thus: Antitumor activity against human NB-4 cells assessed as cell growth inhibition treated for 10 to 15 days. It counts as functional. The following applies: time 10-15 day.
The target in data set [9] is Serine/threonine-protein kinase Sgk2 (Homo sapiens) (UniProt Q9HBY8). Kind of data set: Inhibition of N-terminal GST-fused full length human SGK2 (1 to 367 residues) expressed in baculovirus expression system using SGKtide as substrate at 1 uM in presence of ATP by Mobility shift assay.
In data set [10] the target is Histone-lysine N-methyltransferase, H3 lysine-36 specific (Homo sapiens, UniProt Q96L73). The data set can be described thus: Inhibition of human NSD1 using Nucleosomes and [3H]SAM as substrate incubated for 30 mins to 1 hr by HotSpot kinase assay.
Data set [11] concerns the target MAP kinase-activated protein kinase 3 (Homo sapiens) (UniProt Q16644). Kind of data set: Inhibition of N-terminal GST-fused full length human MAPKAPK3 (1 to 382 residues) expressed in baculovirus expression system using GS peptide as substrate at 1 uM in presence of ATP by Mobility shift assay.
Another data set relates to HCC2935. The data set can be described thus: Antitumor activity against human HCC2935 cells assessed as cell growth inhibition treated for 10 to 15 days. Type of data set: functional. Particulars: time 10-15 day.
In data set [12] the target is Protein arginine N-methyltransferase 3 (Homo sapiens, UniProt O60678). The data set can be described thus: Inhibition of human PRMT3 using Histone H4 and [3H]SAM as substrate incubated for 30 mins to 1 hr by HotSpot kinase assay.
The test system of a further data set is NCI-N87. Kind of data set: Antitumor activity against human NCI-N87 cells assessed as cell growth inhibition treated for 10 to 15 days. Particulars: time 10-15 day. Type of data set: functional.
Data set [13] can be described thus: Antitumor activity against human MJ cells assessed as cell growth inhibition treated for 10 to 15 days. Type of data set: functional. The following applies: time 10-15 day.
A further data set has as its system Toledo. Kind of data set: Antitumor activity against human Toledo cells assessed as cell growth inhibition treated for 10 to 15 days. Type of data set: functional. The following applies: time 10-15 day.
A further data set deals with RPMI-6666. The data set can be described thus: Antitumor activity against human RPMI-6666 cells assessed as cell growth inhibition treated for 10 to 15 days. It counts as functional. Particulars: time 10-15 day.
The test system of a further data set is MDA-MB-231. Kind of data set: Antitumor activity against human MDA-MB-231 cells assessed as cell growth inhibition treated for 10 to 15 days. It counts as functional. The following applies: time 10-15 day.
For a further data set, the system named is U-266. The data set can be described thus: Antitumor activity against human U266B1 cells assessed as cell growth inhibition treated for 10 to 15 days. It counts as functional. The following applies: time 10-15 day.
Another data set has as its system MV4-11. Kind of data set: Antitumor activity against human MV4-11 cells assessed as cell growth inhibition treated for 10 to 15 days. Type of data set: functional. Particulars: time 10-15 day.
Another data set relates to TALL-1. The data set can be described thus: Antitumor activity against human TALL-1 cells assessed as cell growth inhibition treated for 10 to 15 days. It counts as functional. Particulars: time 10-15 day.
The subject of the next data set is A2780. Kind of data set: Antitumor activity against human A2780 cells assessed as cell growth inhibition treated for 10 to 15 days. Type of data set: functional. The following applies: time 10-15 day.
The target in data set [14] is Histone-lysine N-methyltransferase NSD2 (Homo sapiens, UniProt O96028, E1099K). The data set can be described thus: Inhibition of human NSD2 E1099K mutant using Nucleosomes and [3H]SAM as substrate incubated for 30 mins to 1 hr by HotSpot kinase assay.
In data set [15] the test system is KATO III stomach cancer cell line. The data set can be described thus: Antitumor activity against human KATO III stomach cancer cell line assessed as cell growth inhibition treated for 10 to 15 days. Type of data set: functional. Particulars: time 10-15 day.
The next data set relates to BT-474. Kind of data set: Antitumor activity against human BT-474 cells assessed as cell growth inhibition treated for 10 to 15 days. Type of data set: functional. The following applies: time 10-15 day.
Another data set concerns MDA-MB-468. The data set can be described thus: Antitumor activity against human MDA-MB-468 cells assessed as cell growth inhibition treated for 10 to 15 days. It counts as functional. The following applies: time 10-15 day.
The test system of another data set is HCC1143. Kind of data set: Antitumor activity against human HCC1143 cells assessed as cell growth inhibition treated for 10 to 15 days. It counts as functional. The following applies: time 10-15 day.
The nature of data set [16]: Antitumor activity against human NCI-H1781 cells assessed as cell growth inhibition treated for 10 to 15 days. Particulars: time 10-15 day. It counts as functional.
The next data set deals with LoVo. Kind of data set: Antitumor activity against human LoVo cells assessed as cell growth inhibition treated for 10 to 15 days. Type of data set: functional. The following applies: time 10-15 day.
Another data set relates to SNU-5. The data set can be described thus: Antitumor activity against human SNU-5 cells assessed as cell growth inhibition treated for 10 to 15 days. It counts as functional. The following applies: time 10-15 day.
Data set [17] in a line: Antitumor activity against human NCI-H660 cells assessed as cell growth inhibition treated for 10 to 15 days. It counts as functional. Particulars: time 10-15 day.
The test system of a further data set is KURAMOCHI
The data set can be described thus: Antitumor activity against human KURAMOCHI cells assessed as cell growth inhibition treated for 10 to 15 days. The following applies: time 10-15 day. It counts as functional.

For the next data set, the system named is DU-145. The data set can be described thus: Antitumor activity against human DU-145 cells assessed as cell growth inhibition treated for 10 to 15 days. Particulars: time 10-15 day. Type of data set: functional.
A further data set deals with SR. The data set can be described thus: Antitumor activity against human SR cells assessed as cell growth inhibition treated for 10 to 15 days. Particulars: time 10-15 day. It counts as functional.
Data set [18] is described as follows: Antitumor activity against human SNU-840 cells assessed as cell growth inhibition treated for 10 to 15 days. Type of data set: functional. The following applies: time 10-15 day.
For another data set, the system named is HCC1419. Kind of data set: Antitumor activity against human HCC1419 cells assessed as cell growth inhibition treated for 10 to 15 days. Type of data set: functional. Particulars: time 10-15 day.
A further data set has as its system HCC1954. Kind of data set: Antitumor activity against human HCC1954 cells assessed as cell growth inhibition treated for 10 to 15 days. Particulars: time 10-15 day. It counts as functional.
The subject of another data set is MC-CAR. The data set can be described thus: Antitumor activity against human MC-CAR cells assessed as cell growth inhibition treated for 10 to 15 days. Type of data set: functional. The following applies: time 10-15 day.

Activity calls are given as the source filed them. The rule behind the calls is not given here.

Sequence of Serine/threonine-protein kinase Sgk2 (Homo sapiens) (Q9HBY8 whole entry, the tested form may be a part): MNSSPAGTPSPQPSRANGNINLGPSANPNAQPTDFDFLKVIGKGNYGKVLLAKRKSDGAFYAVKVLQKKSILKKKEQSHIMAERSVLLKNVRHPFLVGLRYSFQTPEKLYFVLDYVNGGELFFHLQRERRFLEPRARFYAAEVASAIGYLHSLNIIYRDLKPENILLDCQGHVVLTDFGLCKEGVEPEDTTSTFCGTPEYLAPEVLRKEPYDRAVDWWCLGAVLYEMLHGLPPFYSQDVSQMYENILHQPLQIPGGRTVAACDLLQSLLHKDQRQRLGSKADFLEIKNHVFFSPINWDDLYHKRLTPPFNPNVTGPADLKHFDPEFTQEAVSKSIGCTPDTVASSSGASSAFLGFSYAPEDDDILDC
Sequence of Histone-lysine N-methyltransferase 2A (Q03164 1-2718 limits assumed): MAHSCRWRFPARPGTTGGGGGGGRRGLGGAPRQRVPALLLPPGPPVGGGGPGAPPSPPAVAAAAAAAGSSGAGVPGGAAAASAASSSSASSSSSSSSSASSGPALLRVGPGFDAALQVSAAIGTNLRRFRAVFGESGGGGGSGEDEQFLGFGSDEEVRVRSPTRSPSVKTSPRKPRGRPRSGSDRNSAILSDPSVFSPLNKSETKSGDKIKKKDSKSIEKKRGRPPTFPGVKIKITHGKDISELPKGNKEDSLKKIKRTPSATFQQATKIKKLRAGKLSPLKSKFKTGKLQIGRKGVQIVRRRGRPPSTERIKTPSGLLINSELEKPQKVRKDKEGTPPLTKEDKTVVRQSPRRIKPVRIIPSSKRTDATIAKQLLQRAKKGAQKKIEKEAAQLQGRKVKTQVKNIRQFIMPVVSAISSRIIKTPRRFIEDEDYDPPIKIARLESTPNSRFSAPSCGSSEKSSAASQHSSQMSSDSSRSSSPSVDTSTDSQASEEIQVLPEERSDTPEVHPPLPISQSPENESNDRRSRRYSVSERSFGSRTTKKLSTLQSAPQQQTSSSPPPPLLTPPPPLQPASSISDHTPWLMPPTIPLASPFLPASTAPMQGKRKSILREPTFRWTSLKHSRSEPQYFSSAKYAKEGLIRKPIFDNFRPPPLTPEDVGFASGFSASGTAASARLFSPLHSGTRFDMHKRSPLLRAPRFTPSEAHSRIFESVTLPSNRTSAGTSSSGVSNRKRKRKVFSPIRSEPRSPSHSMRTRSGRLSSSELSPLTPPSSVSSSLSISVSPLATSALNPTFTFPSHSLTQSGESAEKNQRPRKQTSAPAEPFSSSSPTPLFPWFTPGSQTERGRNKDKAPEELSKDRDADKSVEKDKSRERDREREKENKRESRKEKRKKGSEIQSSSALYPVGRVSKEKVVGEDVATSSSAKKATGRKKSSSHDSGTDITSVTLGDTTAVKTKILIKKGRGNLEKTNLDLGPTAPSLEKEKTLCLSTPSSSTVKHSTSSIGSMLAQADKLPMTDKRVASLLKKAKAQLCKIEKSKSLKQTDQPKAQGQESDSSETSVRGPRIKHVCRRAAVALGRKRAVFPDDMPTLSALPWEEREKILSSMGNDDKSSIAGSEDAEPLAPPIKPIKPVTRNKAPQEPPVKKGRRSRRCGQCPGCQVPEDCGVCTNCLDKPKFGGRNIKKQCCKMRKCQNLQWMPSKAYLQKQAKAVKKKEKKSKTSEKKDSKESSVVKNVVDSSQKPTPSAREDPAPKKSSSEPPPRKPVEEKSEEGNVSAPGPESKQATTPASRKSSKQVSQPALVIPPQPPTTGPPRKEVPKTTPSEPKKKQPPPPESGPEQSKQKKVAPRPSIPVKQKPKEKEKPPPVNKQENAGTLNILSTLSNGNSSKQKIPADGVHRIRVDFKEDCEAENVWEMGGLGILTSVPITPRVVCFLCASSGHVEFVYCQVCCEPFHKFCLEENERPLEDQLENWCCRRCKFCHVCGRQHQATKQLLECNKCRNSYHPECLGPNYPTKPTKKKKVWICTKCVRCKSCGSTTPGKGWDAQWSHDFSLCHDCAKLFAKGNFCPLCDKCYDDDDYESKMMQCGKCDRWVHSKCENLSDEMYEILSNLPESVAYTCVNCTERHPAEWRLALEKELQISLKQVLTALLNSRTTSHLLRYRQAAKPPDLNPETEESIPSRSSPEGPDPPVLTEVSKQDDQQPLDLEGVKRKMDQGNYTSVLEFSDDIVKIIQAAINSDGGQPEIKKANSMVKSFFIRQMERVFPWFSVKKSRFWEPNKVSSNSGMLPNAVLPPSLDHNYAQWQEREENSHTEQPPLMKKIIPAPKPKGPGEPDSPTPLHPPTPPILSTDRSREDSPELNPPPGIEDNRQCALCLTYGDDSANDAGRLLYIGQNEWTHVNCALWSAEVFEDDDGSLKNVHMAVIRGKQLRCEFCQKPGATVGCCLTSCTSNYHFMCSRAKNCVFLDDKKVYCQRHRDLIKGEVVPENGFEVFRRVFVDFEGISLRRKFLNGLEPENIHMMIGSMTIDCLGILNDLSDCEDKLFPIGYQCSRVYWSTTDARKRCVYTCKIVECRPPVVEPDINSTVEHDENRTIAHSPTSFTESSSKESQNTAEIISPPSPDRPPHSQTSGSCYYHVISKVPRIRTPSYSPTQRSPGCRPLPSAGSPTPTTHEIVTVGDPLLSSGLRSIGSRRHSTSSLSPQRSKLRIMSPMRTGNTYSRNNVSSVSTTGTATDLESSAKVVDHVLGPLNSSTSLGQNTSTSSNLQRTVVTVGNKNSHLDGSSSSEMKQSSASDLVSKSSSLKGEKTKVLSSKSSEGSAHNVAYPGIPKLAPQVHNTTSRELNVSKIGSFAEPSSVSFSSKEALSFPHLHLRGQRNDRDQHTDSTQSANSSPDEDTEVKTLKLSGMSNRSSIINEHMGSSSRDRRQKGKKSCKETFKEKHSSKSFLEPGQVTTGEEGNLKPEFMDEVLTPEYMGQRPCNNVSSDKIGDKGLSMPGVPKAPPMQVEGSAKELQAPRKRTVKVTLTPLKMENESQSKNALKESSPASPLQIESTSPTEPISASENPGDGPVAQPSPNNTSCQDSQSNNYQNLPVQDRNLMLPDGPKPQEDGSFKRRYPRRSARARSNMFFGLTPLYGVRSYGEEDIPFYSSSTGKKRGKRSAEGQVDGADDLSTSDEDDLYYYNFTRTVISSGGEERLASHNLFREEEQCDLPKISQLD
Sequence of Histone-lysine N-methyltransferase 2A (Q03164 2719-3969 limits assumed): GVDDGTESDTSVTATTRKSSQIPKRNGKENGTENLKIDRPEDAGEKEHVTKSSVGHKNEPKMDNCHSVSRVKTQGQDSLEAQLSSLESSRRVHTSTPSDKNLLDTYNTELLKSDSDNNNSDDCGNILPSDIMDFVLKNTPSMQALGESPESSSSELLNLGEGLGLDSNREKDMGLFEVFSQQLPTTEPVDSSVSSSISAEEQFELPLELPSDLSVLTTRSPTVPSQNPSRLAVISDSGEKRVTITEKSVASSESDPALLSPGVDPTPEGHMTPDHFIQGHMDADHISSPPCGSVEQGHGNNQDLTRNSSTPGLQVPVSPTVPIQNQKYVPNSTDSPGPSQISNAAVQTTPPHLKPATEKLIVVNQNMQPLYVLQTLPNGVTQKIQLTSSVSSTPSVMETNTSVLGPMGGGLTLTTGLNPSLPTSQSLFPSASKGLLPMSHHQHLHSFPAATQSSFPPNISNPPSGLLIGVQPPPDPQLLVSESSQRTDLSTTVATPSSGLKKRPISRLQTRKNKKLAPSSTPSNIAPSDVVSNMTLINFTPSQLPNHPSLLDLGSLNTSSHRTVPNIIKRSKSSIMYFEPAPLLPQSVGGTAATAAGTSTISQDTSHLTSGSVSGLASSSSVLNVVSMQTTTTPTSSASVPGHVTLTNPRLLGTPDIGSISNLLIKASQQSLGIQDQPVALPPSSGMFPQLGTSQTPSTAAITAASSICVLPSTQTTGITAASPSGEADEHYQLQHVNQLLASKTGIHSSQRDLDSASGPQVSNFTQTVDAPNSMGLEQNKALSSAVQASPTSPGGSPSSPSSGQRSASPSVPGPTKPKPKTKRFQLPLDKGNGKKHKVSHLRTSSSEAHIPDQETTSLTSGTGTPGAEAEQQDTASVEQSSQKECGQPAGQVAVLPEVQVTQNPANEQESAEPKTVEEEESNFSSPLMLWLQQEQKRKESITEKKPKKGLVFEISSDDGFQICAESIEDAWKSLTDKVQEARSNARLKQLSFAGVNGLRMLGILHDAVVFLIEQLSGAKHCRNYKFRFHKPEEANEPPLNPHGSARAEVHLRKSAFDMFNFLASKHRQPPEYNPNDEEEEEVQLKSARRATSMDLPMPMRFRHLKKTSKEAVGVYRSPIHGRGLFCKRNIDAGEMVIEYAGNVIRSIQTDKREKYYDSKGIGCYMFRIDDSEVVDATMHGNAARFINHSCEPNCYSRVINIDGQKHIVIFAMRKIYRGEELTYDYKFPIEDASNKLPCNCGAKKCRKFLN
Sequence of MAP kinase-activated protein kinase 2 (Homo sapiens) (P49137 whole entry, looked up, the tested form may be a part): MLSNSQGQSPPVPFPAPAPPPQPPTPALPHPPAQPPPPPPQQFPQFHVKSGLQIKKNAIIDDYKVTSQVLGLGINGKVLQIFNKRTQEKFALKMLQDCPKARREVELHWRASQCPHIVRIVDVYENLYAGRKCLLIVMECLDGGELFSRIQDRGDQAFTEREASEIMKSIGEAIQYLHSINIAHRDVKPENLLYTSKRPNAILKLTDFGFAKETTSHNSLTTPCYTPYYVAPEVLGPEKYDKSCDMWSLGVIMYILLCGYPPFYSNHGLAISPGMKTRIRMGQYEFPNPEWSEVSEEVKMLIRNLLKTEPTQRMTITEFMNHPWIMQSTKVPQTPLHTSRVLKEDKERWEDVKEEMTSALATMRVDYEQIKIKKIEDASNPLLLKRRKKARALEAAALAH
Sequence of MAP kinase-activated protein kinase 3 (Homo sapiens) (Q16644 whole entry, looked up, the tested form may be a part): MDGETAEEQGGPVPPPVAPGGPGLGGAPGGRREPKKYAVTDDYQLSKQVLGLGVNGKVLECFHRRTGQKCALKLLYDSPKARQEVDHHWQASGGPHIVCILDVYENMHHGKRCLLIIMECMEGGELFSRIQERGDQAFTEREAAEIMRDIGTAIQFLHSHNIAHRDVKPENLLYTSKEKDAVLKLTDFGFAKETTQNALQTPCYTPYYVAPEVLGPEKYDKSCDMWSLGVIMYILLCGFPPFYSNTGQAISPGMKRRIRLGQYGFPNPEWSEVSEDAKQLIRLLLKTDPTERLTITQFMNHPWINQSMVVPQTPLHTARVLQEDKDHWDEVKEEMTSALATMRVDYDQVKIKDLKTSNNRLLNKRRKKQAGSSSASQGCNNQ

The inhibition is the change of the read-out against control, counted positive when it falls. A word on the AUC: it is the area under the concentration-time curve, a measure of exposure. The Cmax is the peak of the concentration-time curve. As to `Cc1cc(C)c(CNC(=O)c2cc(Br)c3c(c2C)O[C@@](C)([C@H]2CC[C@H](N(C)C)CC2)O3)c(=O)[nH]1`, the Activity in data set [1] was 216 mg/dL; in [2], 0.168 10^3 /uL; in data set [6], 137 U/L. Also, the inhibition in data set [3] was -10%. This compound also yielded an AUC in data set [4] of 25.2 µM·h. Further, the highest level in data set [5] (Cmax) was 450 nM. Also, in the data set on KARPAS-422, the outcome was Active.
Usually IC50 stands for the concentration that gives 50% inhibition. In general, GI50 refers to the concentration that inhibits growth by half. On to `Cc1cc(C)c(CNC(=O)c2cc(Cl)c3c(c2C)O[C@@](C)([C@H]2CC[C@H](N(C)C)CC2)O3)c(=O)[nH]1` [VALEMETOSTAT], for which the IC50 in [7], in data set [10], in data set [12] and in [14] was 100000 nM throughout. Moreover, the GI50 with Ramos is above 1000 nM; in the data set on NB-4 it was above 1000 nM; in the data set with HCC2935, above 1000 nM; with NCI-N87 it was 536 nM; in data set [13] it was 26 nM; in the data set on Toledo it was above 1000 nM. Further, the GI50 was 68.4 nM in the data set with RPMI-6666; above 1000 nM with MDA-MB-231; 6.88 nM in the data set on U-266; 3.19 nM in the data set on MV4-11; above 1000 nM in the data set on TALL-1; 36 nM with A2780. In addition, the GI50 in [15] is 18.2 nM; in the data set with BT-474, above 1000 nM; in the data set with MDA-MB-468 it was above 1000 nM; in the data set on HCC1143, above 1000 nM; in data set [16] it was above 1000 nM; in the data set with LoVo, 150 nM. Further, the GI50 with SNU-5 is 52.4 nM; in data set [17] it was above 1000 nM; in the data set with KURAMOCHI, above 1000 nM; in the data set with DU-145, above 1000 nM; in the data set on SR, 388 nM; in data set [18], above 1000 nM. Besides, the GI50 with HCC1419 is above 1000 nM; in the data set on HCC1954 it was above 1000 nM; in the data set with MC-CAR, 31.3 nM. Further, the inhibition was 6.7% in data set [8], -9% in [9] and -9.3% in data set [11].
